Active and inactive are the calls of the source. How the calls were made is not given here.
What was measured:
Test in all cases: kinase panel binding selectivity, selectivity assay, biochemical, KINOMEscan (AID 1982)
AMPK-alpha2 = settings: KINOMEscan 353-kinase binding panel, qPCR, at 10 µM, hits give low values
[1] = biological target: Cyclin-dependent kinase 5 (Homo sapiens) (UniProt Q00535); settings: KINOMEscan 353-kinase binding panel, qPCR; CDK5; at 10 µM; hits give low values
DRAK2 = settings: KINOMEscan 353-kinase binding panel, qPCR, at 10 µM, hits give low values
EPHA1 = settings: KINOMEscan 353-kinase binding panel, qPCR, at 10 µM, hits give low values
[2] = biological target: Mitogen-activated protein kinase kinase kinase kinase 5 (Homo sapiens) (UniProt Q9Y4K4); settings: KINOMEscan 353-kinase binding panel, qPCR; MAP4K5; at 10 µM; hits give low values
PAK4 = settings: KINOMEscan 353-kinase binding panel, qPCR, at 10 µM, hits give low values
RPS6KA6(Kin.Dom.2) = settings: KINOMEscan 353-kinase binding panel, qPCR, at 10 µM, hits give low values
[3] = biological target: Serine/threonine-protein kinase 17A (Homo sapiens) (UniProt Q9UEE5); settings: KINOMEscan 353-kinase binding panel, qPCR; DRAK1; at 10 µM; hits give low values
[4] = biological target: Wee1-like protein kinase 2 (Homo sapiens) (UniProt P0C1S8); settings: KINOMEscan 353-kinase binding panel, qPCR; WEE2; at 10 µM; hits give low values
p38-beta = settings: KINOMEscan 353-kinase binding panel, qPCR, at 10 µM, hits give low values

Measured: percent of control binding

Chain of Serine/threonine-protein kinase 17A (Homo sapiens) (Q9UEE5 whole entry, looked up): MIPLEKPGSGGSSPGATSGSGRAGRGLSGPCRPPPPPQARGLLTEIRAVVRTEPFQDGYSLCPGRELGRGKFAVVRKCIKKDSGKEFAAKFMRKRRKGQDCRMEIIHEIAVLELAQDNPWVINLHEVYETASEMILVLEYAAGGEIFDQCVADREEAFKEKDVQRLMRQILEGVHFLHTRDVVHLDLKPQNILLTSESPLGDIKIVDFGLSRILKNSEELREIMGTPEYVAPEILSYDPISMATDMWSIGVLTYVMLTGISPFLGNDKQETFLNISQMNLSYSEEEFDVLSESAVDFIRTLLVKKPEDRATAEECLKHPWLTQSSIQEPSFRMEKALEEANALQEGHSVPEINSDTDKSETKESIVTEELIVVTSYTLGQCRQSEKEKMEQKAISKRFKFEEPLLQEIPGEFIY
Chain of Cyclin-dependent kinase 5 (Homo sapiens) (Q00535 whole entry, looked up): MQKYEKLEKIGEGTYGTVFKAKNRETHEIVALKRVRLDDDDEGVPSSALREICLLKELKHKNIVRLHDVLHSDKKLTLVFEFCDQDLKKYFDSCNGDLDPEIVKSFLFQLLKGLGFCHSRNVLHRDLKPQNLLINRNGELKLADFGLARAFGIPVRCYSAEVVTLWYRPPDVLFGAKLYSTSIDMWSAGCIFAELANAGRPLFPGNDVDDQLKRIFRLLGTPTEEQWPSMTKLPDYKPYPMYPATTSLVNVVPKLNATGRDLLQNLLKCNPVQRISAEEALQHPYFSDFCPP
Chain of Wee1-like protein kinase 2 (Homo sapiens) (P0C1S8 whole entry, looked up): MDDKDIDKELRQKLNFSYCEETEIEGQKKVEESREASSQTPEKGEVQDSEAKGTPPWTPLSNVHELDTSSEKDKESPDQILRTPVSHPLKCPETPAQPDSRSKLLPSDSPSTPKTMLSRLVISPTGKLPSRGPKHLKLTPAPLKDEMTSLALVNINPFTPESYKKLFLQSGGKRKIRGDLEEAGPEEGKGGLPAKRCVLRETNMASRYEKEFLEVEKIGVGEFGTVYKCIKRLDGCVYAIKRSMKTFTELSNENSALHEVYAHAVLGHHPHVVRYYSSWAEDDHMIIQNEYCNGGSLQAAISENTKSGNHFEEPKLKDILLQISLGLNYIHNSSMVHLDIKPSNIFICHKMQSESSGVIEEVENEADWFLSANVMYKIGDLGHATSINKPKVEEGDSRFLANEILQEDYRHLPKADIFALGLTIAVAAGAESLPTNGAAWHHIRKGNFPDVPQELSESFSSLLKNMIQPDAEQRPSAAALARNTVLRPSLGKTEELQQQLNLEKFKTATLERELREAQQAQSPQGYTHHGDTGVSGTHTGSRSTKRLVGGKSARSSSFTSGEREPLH
Chain of Mitogen-activated protein kinase kinase kinase kinase 5 (Homo sapiens) (Q9Y4K4 whole entry, looked up): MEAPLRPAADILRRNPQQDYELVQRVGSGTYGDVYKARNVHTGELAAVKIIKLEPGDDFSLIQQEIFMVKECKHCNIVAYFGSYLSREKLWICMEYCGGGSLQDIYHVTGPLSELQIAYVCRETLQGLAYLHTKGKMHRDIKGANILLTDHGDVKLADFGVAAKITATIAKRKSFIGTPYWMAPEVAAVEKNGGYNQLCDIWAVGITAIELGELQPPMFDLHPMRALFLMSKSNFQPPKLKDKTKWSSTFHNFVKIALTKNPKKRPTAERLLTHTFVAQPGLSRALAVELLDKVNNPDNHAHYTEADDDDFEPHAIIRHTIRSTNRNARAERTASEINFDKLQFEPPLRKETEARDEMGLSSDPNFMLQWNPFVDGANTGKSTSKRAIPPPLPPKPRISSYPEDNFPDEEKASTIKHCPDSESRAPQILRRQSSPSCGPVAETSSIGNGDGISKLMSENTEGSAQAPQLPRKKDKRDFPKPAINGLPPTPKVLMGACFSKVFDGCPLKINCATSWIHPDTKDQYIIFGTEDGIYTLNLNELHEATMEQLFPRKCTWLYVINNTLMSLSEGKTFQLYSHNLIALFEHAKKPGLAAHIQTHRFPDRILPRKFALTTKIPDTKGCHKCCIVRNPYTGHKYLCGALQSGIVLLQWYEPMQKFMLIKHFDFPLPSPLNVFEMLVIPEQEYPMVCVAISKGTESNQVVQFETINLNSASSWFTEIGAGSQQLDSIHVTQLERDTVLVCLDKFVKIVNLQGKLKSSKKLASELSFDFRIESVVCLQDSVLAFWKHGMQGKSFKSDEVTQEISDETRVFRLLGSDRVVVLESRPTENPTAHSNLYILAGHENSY

Cc1cc2nc(NCCCO)n(CC(=O)c3cc(C(C)(C)C)c(O)c(C(C)(C)C)c3)c2cc1C
inactive: AMPK-alpha2 100% | [1] 76% | DRAK2 100% | EPHA1 100% | [2] 83% | PAK4 92% | RPS6KA6(Kin.Dom.2) 100% | [3] 89% | [4] 100% | p38-beta 100%
